Data on 6 compounds can be found in patent US7276492B2, “Use of ACE inhibitors for treatment of patients suffering from behavioral disorders” (priority 2000, dated 2007).

Data set [1] concerns temper, rage and outburst behavior disorder (TROBD). The data set can be described thus: Example 1: lisinopril regimen in a patient suffering from TROBD. Format: in vivo, human. As to conditions: for relief of TROBD by prior treatments: prior treatments of the same patient, before lisinopril. From the text: The TROBD was an endogenous behavioral disorder. […] When confined to their room, the patient would act out with banging and stomping. Episodes were accompanied by physiological changes including dilation of pupils, expressionless face and a rise in blood pressure.
With lisinopril medication as noted above over a period of about four weeks, definite changes in behavior were evident. […] At home, they retreated from a situation triggering the event to their room, where they remained quiet.
Each of the three episodes occurred at school. In one episode, the patient was working on a computer and refused to give up their work station when their allotted time had been used up. […] A second episode was triggered when the patient was asked to make up a class they had missed. They refused to go to the class but voluntarily moved themself to a “cooling room” to allow their temper to subside. They again, when so instructed, walked to the school office without being physically coerced. In a third episode, the patient was asked to leave the classroom because they would not stop talking during a quiet time. In this case, there was a limited degree of acting out in that, while sitting in a chair, they kicked a desk which was knocked over. They then allowed themself to be escorted by police officers to the school office without being physically coerced. In the office, they kicked another desk and was taken by ambulance to a children's hospital for evaluation.

For the next data set, the system named is central nervous system. As to conditions: of the persons treated; cited from earlier work.
Where [2] appears, read: under treatment, approximately two and one-half months.

SMILES strings stand for the structures.

For the compound `C[C@H](N)Cc1ccccc1` [dextroamphetamine], the “relief of TROBD by prior treatments” value in data set [1] is listed as “ineffective to provide adequate relief”.

With `CCOC(=O)[C@H](CCc1ccccc1)N[C@@H](C)C(=O)N1CCC[C@H]1C(=O)O` [enalapril], the “incidence of dream abnormality” value in the data set on central nervous system is on record as “less than one”.

In the case of `CCC(=O)O[C@@H](O[P@](=O)(CCCCc1ccccc1)CC(=O)N1C[C@H](C2CCCCC2)C[C@H]1C(=O)O)C(C)C` [fosinopril], in the data set on central nervous system, the “incidence of behavior change” value was “less than one”, the “incidence of memory disturbance” value is given as “less than one” and the “incidence of mood change” value is “less than one”.

As to `NCCCC[C@H](N[C@@H](CCc1ccccc1)C(=O)O)C(=O)N1CCC[C@H]1C(=O)O` [lisinopril], the “violent outburst during episodes” value in data set [1] (lisinopril 10 mg per day oral, about four weeks) is listed as “without violent outburst”. In addition, in data set [1] (lisinopril 10 mg per day oral, about four weeks, prior to medication approximately twenty minutes per episode), the “duration of episodes of rage and/or violent behavior” value is reported as “five to ten”. Also, the frequency of episodes result in data set [1] (lisinopril 10 mg per day oral, about four weeks, prior to medication two to four episodes per week) is “approximately one”. Further, in data set [1] (setting [2]), the “blood pressure during the three most marked temper-related episodes” value is recorded as 128/64, the “degree of violence in episodes compared to behavior prior to treatment” value is given as “significantly reduced” and the dilation of pupils result is “no noticeable dilation of pupils”.

In the case of `COC(=O)C(c1ccccc1)C1CCCCN1` (stereo not shown) [methylphenidate], the “relief of TROBD by prior treatments” value in data set [1] is “ineffective to provide adequate relief”.

Turning to `CCOC(=O)[C@H](CCc1ccccc1)N[C@@H](C)C(=O)N1Cc2cc(OC)c(OC)cc2C[C@H]1C(=O)O` [moexipril], in the data set with central nervous system, the “incidence of mood change” value is listed as “less than one”.
